Test results from article PMC7614683, “A small molecule PI3Kα activator for cardioprotection and neuroregeneration” (Nature, 2023).

Tests used:
PI3Kα-KO MEFs = assay: Mass spectrometry-based phosphoproteomics, PI3Kα-KO MEFs; type: cell-based, mouse
Protocol: PI3Kα-WT and PI3Kα-KO MEFs, grown in 15 cm dishes, were serum-starved overnight in DMEM with 1% penicillin-streptomycin and stimulated by the addition of 0.05% DMSO, 5 μM 1938 in final 0.05% DMSO or 100 nM insulin (Sigma #I5016) for 15 min or 4 h. Cells were lysed in 500 μl urea lysis buffer [50 mM triethylammonium bicarbonate, 8 M urea, cOmplete™ EDTA-free protease inhibitor cocktail (1:50 dilution) (Roche #11873580001), 1 PhosSTOP tablet (Roche #4906845001) per 10 ml of lysis buffer, 1 mM sodium orthovanadate] and lysates sonicated until clear for ~10 min with cooling breaks on ice. Protein concentration was measured using a BCA protein assay (Pierce #23227). 300 μg of protein was reduced with 5 mM Tris(2-carboxyethyl)phosphine hydrochloride (Sigma #C4706) at 37°C for 20 min and alkylated using 10 mM 2-chloroacetamide (Sigma #22790) for 20 min at room temperature in the dark. Proteins were digested with LysC (#129-02541; FUJIFILM Wako Chemicals, Osaka, Japan) for 3.5 h at 30°C. Samples were then diluted with 50 mM triethylammonium bicarbonate (Sigma #T7408) to reduce the urea concentration to 1.5 M, followed by an overnight peptide digestion with trypsin (Promega #V5113) at 37°C. Digest reactions were quenched by the addition of 10% trifluoroacetic acid (EMD Millipore #302031-M) to a final pH of 2.0. Sample desalting was performed using 35-350 μg C18 columns (HMM S18V; The Nest Group, Inc., Southborough, MA, USA) according to the manufacturer’ specifications. TiO2 (Hichrome Titansphere TiO2, 10 μm capacity, 100 mg, GL Sciences #5020-75010) was used for phosphoenrichment. Following peptide loading onto TiO2, the beads were sequentially washed with 1 M glycolic acid (Sigma #124737)/80% acetonitrile/5% trifluoroacetic acid, followed by 80% acetonitrile/0.2% trifluoroacetic acid and 20% acetonitrile before elution with 5% ammonium hydroxide. Enriched samples were desalted using 7-70 μg C18 columns (HUM S18V; The Nest Group, Inc., Southborough, MA, USA) according to the manufacturer’s specifications. Dried phosphopeptide samples were stored at -80°C and resuspended in 10% formic acid immediately prior to analysis. nLC-MS/MS was performed on a Q-Exactive Orbitrap Plus interfaced to a NANOSPRAY FLEX ion source and coupled to an Easy-nLC 1000 (Thermo Scientific). Fifty percent of each sample was analysed as 10 μl injections. Peptides were separated on a 27 cm fused silica emitter, 75 μm diameter, packed in-house with Reprosil-Pur 200 C18-AQ, 2.4 μm resin (Dr. Maisch, Ammerbuch-Entringen, Germany) using a linear gradient from 5% to 30% acetonitrile/0.1% formic acid over 180 min, at a flow rate of 250 nl/min. Peptides were ionised by electrospray ionisation using 1.9 kV applied immediately prior to the analytical column via a microtee built into the nanospray source with the ion transfer tube heated to 320°C and the S-lens set to 60%. Precursor ions were measured in a data-dependent mode in the orbitrap analyser at a resolution of 70,000 and a target value of 3e6 ions. The ten most intense ions from each MS1 scan were isolated, fragmented in the HCD cell, and measured in the Orbitrap at a resolution of 17,500.
Raw data were analysed with MaxQuant[72] (version 1.5.5.1) where they were searched against the mouse UniProt database (http://www.uniprot.org/, downloaded 04/12/2018) using default settings. Carbamidomethylation of cysteines was set as fixed modification, and oxidation of methionines, acetylation at protein N-termini, phosphorylation (on S, T or Y) were set as variable modifications. Enzyme specificity was set to trypsin with maximally 2 missed cleavages allowed. To ensure high confidence identifications, peptide-spectral matches, peptides, and proteins were filtered at a less than 1% false discovery rate (FDR). Label-free quantification in MaxQuant was used with a LFQ minimum ratio count of 2, Fast LFQ selected and the ‘skip normalisation’ option selected. […]

MEFs = assay: Phosphoinositide quantification by mass spectrometry, MEFs; type: cell-based, mouse
Protocol: A549 cells (5.10^5) or wild-type MEFs (3.10^5) were plated in complete media onto 3.5 cm dishes or 60 mm dishes respectively for 24 h, prior to FCS-free starvation media for 16 h. MEFs, in addition, were supplemented with arachidonic acid in the FCS-free starvation media as previously described. […] Reactions were terminated in 600 μl ice-cold 1 M HCl and cells scraped and resuspended, then divided into two equal samples in eppendorfs. […] The data are shown as response ratios, calculated by normalizing the multiple reaction monitoring (MRM)-targeted lipid integrated response area to that of a known amount of relevant internal standard. To account for any cell input variability, PIP3 response ratios were normalized to C38:4-PI response ratios; while PI(3,4)P2 response ratios were normalised to PI(4,5)P2 response ratios. Data shown are mean ±SD for n ≥3, except for non-DMSO control in MEF PIP3 measurements where n=1.

Compound: CCN1CCN(c2ccc(Nc3cc(Nc4cccc5c4N(C(C)=O)CC5)ccn3)cc2)CC1 [Compound 1938]
- signalling impact (phosphoproteomics) (PI3Kα-KO MEFs; PI3Kα-KO MEFs, 1938 5 μM): little signalling impact
- log2FC, PI3Ka KO 15’ 1938 vs PI3Ka KO DMSO (PI3Kα-KO MEFs; phosphosite Cask_S544): -0.1046
- log2FC, PI3Ka KO 4 h 1938 vs PI3Ka KO DMSO (PI3Kα-KO MEFs; phosphosite Cask_S544): NegInf
- log2FC, PI3Ka KO 15’ 1938 vs PI3Ka KO DMSO (PI3Kα-KO MEFs; phosphosite Cask_S545): 0.1395
- log2FC, PI3Ka KO 4 h 1938 vs PI3Ka KO DMSO (PI3Kα-KO MEFs; phosphosite Cask_S545): 0.1333
- log2FC, PI3Ka KO 15’ 1938 vs PI3Ka KO DMSO (PI3Kα-KO MEFs; phosphosite Gm42715_S1683): Inf
- log2FC, PI3Ka KO 4 h 1938 vs PI3Ka KO DMSO (PI3Kα-KO MEFs; phosphosite Gm42715_S1683): Inf
- time for which maximal PIP3 level is maintained (MEFs): up to 40 min
- time of maximal PIP3 level (MEFs): 5 min
- time to increased PIP3 levels (MEFs): ≤ 30 s
- concentration at which PIP3 induction plateaus (MEFs; 2 min): around 10 μM
- PIP3 levels compared with insulin and PDGF (MEFs; 2 min time point): comparable to those induced by insulin
- EC50 (MEFs; Mus musculus, 2 min, read-out: EC50 of PIP3 induction): ~5 µM
